# Laboratory results from patent US12678438B2, “Treatment of cancer with CDK inhibitors” (THE TRUSTEES OF THE UNIVERSITY OF PENNSYLVANIA, priority 2019, dated 2026).
# How the values were obtained:
# CDK7 = CDK7 (Homo sapiens, UniProt P50613); experiment: Luminescence-based CDK7 kinase activity on MED1 peptide; assay type: biochemical; conditions: varying concentration of THZ1
# Description: For luminescence-based CDK7 kinase activity analysis wild type MED1-peptide “[sequence]” and mutant MED1-peptide “[sequence]” (GenScript, U2051EC280_1, U2051EC280_3) were used. Following the above protocol, briefly after 60 min incubation, post addition of CAK complex, ADP-GLOW reagent (Promega, V6930) was thawed and 25 ul of the reagent was added to each well, the plate was covered with aluminum foil and incubated at room temperature (RT) for 45 min. After the incubation Kinase-Detection reagent (BPS Bioscience, 79603) was thawed and 50 ul of the reagent was added to each well and incubated for another 45 min at RT under dark conditions. After 45 min incubation luminescence was measured using the microplate reader (Note: in luminescence-based kinase assay, CAK-complex+CTD-peptide (BPS Bioscience)+ATP was used as a positive control, were as CAK complex+Human MED1 protein without ATP was used as a negative control to subtract the background readings).
# MED1-AR complex = experiment: Immunoprecipitation of endogenous MED1-AR complex; assay type: cell-based, human; conditions: VCaP and LNCaP nuclear extracts, 100 nM THZ1, 6 h
# Description: For endogenous immunoprecipitation experiments, nuclear extracts were obtained from VCaP and LNCaP cells using NE-PER nuclear extraction kit (Thermo Scientific, 78835). Nuclear pellet was then lysed in IP buffer (20 mM Tris pH7.5, 150 mM NaCl, 1% Triton-X 100, Protease/Phosphatase Inhibitor) by sonication. Nuclear lysates (0.35-1.0 mg) were pre-cleaned by incubation with protein G Dynabeads (Life Technologies) for 1 h on a rotator at 4° C. 5 μg antibody was added to the pre-cleared lysates and incubated on a rotator at 4° C. overnight. Protein G Dynabeads were then added for 1 h. Beads were washed twice in IP buffer, containing 300 mM NaCl, and resuspended in 40 μL of 2× loading buffer and boiled at 95° C. for […] for separation of the protein and beads. Samples were then analyzed by SDS-PAGE and western blotting as described above.
# [1] = tested on: chromatin-bound p-MED1/MED1; experiment: Chromatin-bound protein extraction and immunoblot; assay type: cell-based, human; conditions: DHT-stimulated LNCaP, 6 h; THZ1 100 nM, enzalutamide 5 μM
# Description: Chromatin bound protein extraction was performed following the protocol described in Pawar et al. Briefly, 10 million cells were collected and washed with DPBS, and were resuspended in 250 μl Buffer A (10 mM HEPES pH 7.9, 10 mM KCl, 1.5 mM MgCl2, 0.34 M sucrose, 10% glycerol, 1 mM DTT) supplemented with 0.1% TritonX-100 and incubated on ice for 10 min. The nuclei pellet was collected by centrifugation at 1300×g for 5 min at 4° C., washed in Buffer A and centrifuged again with the same settings. The nuclear pellet was then resuspended in Buffer B (3 mM EDTA, 0.2 mM EGTA, 1 mM DTT) and incubated on ice for 30 min. The chromatin pellet was collected by centrifugation at 1700×g for 5 min at 4° C., washed in Buffer B and centrifuged again with the same settings. The proteins were incubated on ice in Buffer B with 150 mM NaCl for 20 min and centrifuged at 1700×g for 5 min to remove proteins soluble in 150 mM salt concentrations. The pellet was then incubated in Buffer B with 300 mM NaCl on ice for 20 min and centrifuged again at 1700×g to obtain the final chromatin pellet. The chromatin pellet was dissolved in sample buffer, sonicated for 15 seconds, and boiled at 95° C. for 10 min. Samples were analyzed using Immunoblot analysis as described previously. All buffers were supplemented with Pierce protease inhibitor and Halt protease & phosphatase inhibitors.
# AR p-S515 = experiment: Immunoblot of AR p-S515; assay type: cell-based, human; conditions: LNCaP, 200 nM, 12 h
# Description: Cell lysates were prepared with RIPA buffer (Boston Bioproducts, BP-115DG)-10 mM Tris-HCl pH 7.5, 1 mM EDTA, 400 mM NaCl, 0.5% NP-40 and 1 mM DTT, supplemented with protease inhibitor cocktail (Pierce, A32965) and phosphatase inhibitor (Thermo, 1861280). For immunoblotting 200 μg total protein extract was boiled in sample buffer and 15-25 μg aliquots were separated by SDS-PAGE and transferred onto Polyvinylidene Difluoride membrane (GE Healthcare, IPVH00010). The membrane was incubated for one hour in blocking buffer [Tris-buffered saline, 0.1% Tween (TBS-T), 5% nonfat dry milk followed by overnight incubation on a rocker at 4° C. with the primary antibody. Following a wash with TBS-T, the blot was incubated with horseradish peroxidase-conjugated secondary antibody for 2 hrs on a rocker at room temperature. The blots were washed again and signals were visualized using enhanced chemiluminescence system as per manufacturer's protocol (GE Healthcare) or Kwik Quant Imager (Kindle Biosciences). […]
# Sequence of CDK7 (P50613 whole entry): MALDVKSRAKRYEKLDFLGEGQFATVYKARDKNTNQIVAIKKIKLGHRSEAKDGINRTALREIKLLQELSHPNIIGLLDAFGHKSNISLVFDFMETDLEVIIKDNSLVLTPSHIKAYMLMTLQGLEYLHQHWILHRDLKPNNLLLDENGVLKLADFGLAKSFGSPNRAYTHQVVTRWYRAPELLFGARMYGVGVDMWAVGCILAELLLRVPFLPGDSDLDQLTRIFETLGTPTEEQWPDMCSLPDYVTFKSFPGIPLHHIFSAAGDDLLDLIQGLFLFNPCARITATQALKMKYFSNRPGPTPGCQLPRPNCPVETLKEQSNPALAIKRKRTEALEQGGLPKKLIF
# Sequence of CDK7 (P51946 whole entry partner): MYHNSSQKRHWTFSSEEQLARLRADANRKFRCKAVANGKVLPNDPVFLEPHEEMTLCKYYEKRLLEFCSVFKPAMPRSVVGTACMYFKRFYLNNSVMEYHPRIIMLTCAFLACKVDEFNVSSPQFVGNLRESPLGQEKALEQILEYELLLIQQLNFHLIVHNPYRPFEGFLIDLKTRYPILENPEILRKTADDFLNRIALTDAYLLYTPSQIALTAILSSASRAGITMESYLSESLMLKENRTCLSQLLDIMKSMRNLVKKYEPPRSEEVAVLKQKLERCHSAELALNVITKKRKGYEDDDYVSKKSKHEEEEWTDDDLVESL
# Sequence of CDK7 (P51948 whole entry partner): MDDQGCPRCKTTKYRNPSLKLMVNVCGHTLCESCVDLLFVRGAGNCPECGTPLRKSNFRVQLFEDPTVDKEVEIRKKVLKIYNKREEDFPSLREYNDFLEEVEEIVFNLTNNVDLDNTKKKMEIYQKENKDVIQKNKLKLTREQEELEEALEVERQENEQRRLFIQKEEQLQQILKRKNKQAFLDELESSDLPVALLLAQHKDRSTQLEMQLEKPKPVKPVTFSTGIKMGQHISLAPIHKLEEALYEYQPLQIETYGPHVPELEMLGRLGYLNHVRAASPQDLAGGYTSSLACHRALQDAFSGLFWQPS
compound,measurement,setting,value
CN(C)C/C=C/C(=O)Nc1ccc(C(=O)Nc2cccc(Nc3ncc(Cl)c(-c4c[nH]c5ccccc45)n3)c2)cc1 [THZ1],CDK7-mediated phosphorylation of the T1457 wildtype peptide,CDK7,inhibited by THZ1 treatment in a dose-dependent manner
same,endogenous MED1-AR complex formation,MED1-AR complex,loss of endogenous MED1-AR complex formation
same,chromatin-bound levels of p-MED1/MED1,[1],complete loss in the chromatin-bound levels of p-MED1/MED1
same,AR p-S515 levels,AR p-S515,did not reduce AR p-S515 levels
